In patent publication US9056836B2, “Benzomorphan analogs and the use thereof” (Purdue Pharma L.P., priority 2013, dated 2015):
Like-named read-outs stand apart in the source and are kept apart here.

Assays:
κ opioid receptor [1] = target: T1, κ opioid receptor (Homo sapiens (Human), UniProt P41145); assay: κ-opioid receptor [35S]GTPγS functional assay; type: biochemical; conditions: for Emax: maximal effect relative to U69,593
Experimental: κ-Opioid Receptor Functional Assay Procedures: Functional [^35S]GTPγS binding assays were conducted as follows, k opioid receptor membrane solution was prepared by sequentially adding final concentrations of 0.026 μg/μl κ membrane protein (in-house), 10 μg/mL saponin, 3 μM GDP and 0.20 [^35S]GTPγS to binding buffer (100 mM NaCl, 10 mM MgCl2, 20 mM HEPES, pH 7.4) on ice. The prepared membrane solution (190 μl/well) was transferred to 96-shallow well polypropylene plates containing 10 μl of 20× concentrated stock solutions of agonist prepared in DMSO. Plates were incubated for 30 min at a temperature of about 25° C. with shaking. Reactions were terminated by rapid filtration onto 96-well Unifilter GF/B filter plates (Perkin Elmer, Shelton, Conn.) using a 96-well tissue harvester (Packard) and followed by three filtration washes with 200 μl ice-cold binding buffer (10 mM NaH2PO4, 10 mM Na2HPO4, pH 7.4). Filter plates were subsequently dried at 50° C. for 2-3 hours. Fifty μl/well scintillation cocktail (Perkin Elmer, Shelton, Conn.) was added and plates were counted in a Packard Top-Count for 1 min/well. Data were analyzed using the sigmoidal dose-response curve fitting functions in GraphPad PRISM™ v. 3.0, or an in-house function for non-linear, sigmoidal dose-response curve-fitting.
κ-Opioid Receptor Functional Data: κ GTP EC50 is the concentration of a compound providing 50% of the maximal response for the compound at a κ receptor.
κ GTP Emax (%) is the maximal effect elicited by a compound relative to the effect elicited by U69,593.

μ-opioid receptor [2] = target: T2, μ-opioid receptor (Homo sapiens (Human), UniProt P35372); assay: μ-opioid receptor [35S]GTPγS functional assay; type: biochemical; conditions: for Emax: maximal effect relative to DAMGO
Experimental: μ-Opioid Receptor Functional Assay Procedures: [^35S]GTPγS functional assays were conducted using freshly thawed μ-receptor membranes (Perkin Elmer, Shelton, Conn.). Assay reactions were prepared by sequentially adding the following reagents to binding buffer (100 mM NaCl, 10 mM MgCl2, 20 mM HEPES, pH 7.4) on ice (final concentrations indicated): membrane protein (0.026 mg/mL), saponin ([…]), GDP ([…]) and [^35S]GTPγS (0.20 nM; Perkin Elmer, Shelton, Conn.). The prepared membrane solution (190 μl/well) was transferred to 96-shallow well polypropylene plates containing 10 μl of 20× concentrated stock solutions of the agonist [D-Ala^2, N-methyl-Phe^4 Gly-ol^5]-enkephalin (DAMGO) prepared in dimethyl sulfoxide (DMSO). Plates were incubated for 30 min at about 25° C. with shaking. Reactions were terminated by rapid filtration onto 96-well Unifilter GF/B filter plates (Perkin Elmer, Shelton, Conn.) using a 96-well tissue harvester (Perkin Elmer, Shelton, Conn.) followed by three filtration washes with 200 μl of ice-cold wash buffer (10 mM NaH2PO4, 10 mM Na2HPO4, pH 7.4). Filter plates were subsequently dried at 50° C. for 2-3 hr, BetaScint scintillation cocktail (Perkin Elmer, Shelton, Conn.) was added (50 μl/well) and plates were counted using a Packard Top-Count for […]. Data were analyzed using the sigmoidal dose-response curve fitting functions in GraphPad PRISM™; v. 3.0, or an in-house function for non-linear, sigmoidal dose-response curve-fitting.
μ-Opioid Receptor Functional Data: μ GTP EC50 is the concentration of a compound providing 50% of the maximal response for the compound, at a μ-opioid receptor. […] In certain embodiments.
μ GTP Emax (%) is the maximal effect elicited by a compound relative to the effect elicited by DAMGO, a standard μ agonist. Generally, the μ GTP Emax (%) value measures the efficacy of a compound to treat or prevent pain or other Conditions.

κ opioid receptor [3] = target: T1, κ opioid receptor; assay: κ-opioid receptor radioligand dose-displacement binding assay ([3H]-U69,593)
Experimental: κ-opioid Receptor Binding Assay Procedures: Membranes from recombinant HEK-293 cells expressing the human κ opioid receptor (cloned in house) were prepared by lysing cells in ice cold hypotonic buffer (2.5 mM MgCl2, 50 mM HEPES, pH 7.4) (10 mL/10 cm dish) followed by homogenization with a tissue grinder/Teflon pestle. Membranes were collected by centrifugation at 30,000× g for 15 min at 4° C. and pellets were resuspended in hypotonic buffer to a final concentration of 1-3 mg/mL. Protein concentrations were determined using the BioRad protein assay reagent with bovine serum albumen as standard. Aliquots of κ receptor membranes were stored at −80° C.
Radioligand dose displacement assays used 0.4 nM [^3]-U69,593 (GE Healthcare, Piscataway, N.J.; 40 Ci/mmole) with 15 μg membrane protein (recombinant κ opioid receptor expressed in HEK 293 cells; in-house prep) in a final volume of 200 μl binding buffer (5% DMSO, 50 mM Trizma base, pH 7.4). Non-specific binding was determined in the presence of 10 μM unlabeled naloxone or U69,593. All reactions were performed in 96-well polypropylene plates for 1 hr at a temperature of about 25° C. Binding reactions were terminated by rapid filtration onto 96-well Unifilter GF/C filter plates (Perkin Elmer, Shelton, Conn.) presoaked in 0.5% polyethylenimine (Sigma). Harvesting was performed using a 96-well tissue harvester (Perkin Elmer, Shelton, Conn.) followed by five filtration washes with 200 μl ice-cold binding buffer. Filter plates were subsequently dried at 50° C. for 1-2 hours. Fifty μl/well scintillation cocktail (Perkin Elmer, Shelton, Conn.) was added and plates were counted in a Packard Top-Count for 1 min/well. Data were analyzed using the sigmoidal dose-response curve fitting functions in GraphPad PRISM™ v. 3.0, or an in-house function for non-linear, sigmoidal dose-response curve-fitting.
κ-opioid Receptor Binding Data: In certain embodiments, the Compounds of the Invention will have a Ki (nM) for κ receptors of about 10,000 or more (which, for purposes of this invention, is interpreted as having no binding to the κ receptors).

μ-opioid receptor [4] = target: T2, μ-opioid receptor; assay: μ-opioid receptor radioligand dose-displacement binding assay ([3H]-diprenorphine); conditions: binding affinity, μ-opioid receptor membranes
Experimental: μ-opioid Receptor Binding Assay Procedures: Radioligand dose-displacement binding assays for μ-opioid receptors used 0.3 nM [^3H]-diprenorphine (Perkin Elmer, Shelton, Conn.), with […] membrane protein/well in a final volume of 500 μl binding buffer (10 mM MgCl2, 1 mM EDTA, 5% DMSO, 50 mM HEPES, pH 7.4). Reactions were carried out in the absence or presence of increasing concentrations of unlabeled naloxone. All reactions were conducted in 96-deep well polypropylene plates for 2 hr at room temperature. Binding reactions were terminated by rapid filtration onto 96-well Unifilter GF/C filter plates (Perkin Elmer, Shelton, Conn.), presoaked in 0.5% polyethylenimine using a 96-well tissue harvester (Perkin Elmer, Shelton, Conn.) followed by performing three filtration washes with 500 μl of ice-cold binding buffer. Filter plates were subsequently dried at 50° C. for 2-3 hours. BetaScint scintillation cocktail (Perkin Elmer, Shelton, Conn.) was added (50 μl/well), and plates were counted using a Packard Top-Count for 1 min/well. The data were analyzed using the one-site competition curve fitting functions in GraphPad PRISM™ v. 3.0 or higher (San Diego. Calif.), or an in-house function for one-site competition curve-fitting.

[5] = κ GTP EC50, read-out: GTPγS κ EC50
[6] = μ GTP EC50, read-out: GTPγS μ EC50
[7] = binding affinity, recombinant κ opioid receptor expressed in HEK 293 cells, read-out: Ki (nM) Opioid Receptor κ

SMILES	Emax (κ opioid receptor [1]) [%]	EC50 (κ opioid receptor [1]; [5]) [µM]	Emax (μ-opioid receptor [2]) [%]	EC50 (μ-opioid receptor [2]; [6]) [µM]	Ki (κ opioid receptor [3]; [7]) [nM]	Ki (μ-opioid receptor [4]) [nM]	EC50 (κ opioid receptor [1]) [µM]	EC50 (μ-opioid receptor [2]) [µM]	Ki (κ opioid receptor [3]) [nM]
O=C(O)/C=C1\[C@H]2Cc3ccc(O)cc3[C@]1(CCCC(=O)O)CCN2CC1CC1 [Compound 13, 4-((2R,6S,Z)-11-(carboxymethylene)-3-(cyclopropylmethyl)-8-hydroxy-1,2,3,4,5,6-hexahydro-2,6-methanobenzo[d]azocin-6-yl)butanoic acid]	74.3 ± 7.84	0.555 ± 0.0611	44.3 ± 9.06	0.743 ± 0.195	66.8 ± 8.74	1340 ± 356			
COc1ccc2c(c1)[C@]1(CCO)CCN(CC3CC3)[C@H](C2)[C@@H]1CO [Compound 19, 2-((2R,6S,11R)-3-(cyclopropylmethyl)-11-(hydroxymethyl)-8-methoxy-1,2,3,4,5,6-hexahydro-2,6-methanobenzo[d]azocin-6-yl)ethanol]	40.3 ± 5.36						1.86 ± 0.231	> 20	89.6 ± 33
CN(C)C(=O)CCC[C@]12CCN(CC3CC3)[C@H](Cc3ccc(O)cc31)/C2=C\C(=O)O [Compound 12, (Z)-2-((2R,6S)-3-(cyclopropylmethyl)-6-(4-(dimethylamino)-4-oxobutyl)-8-hydroxy-1,2,3,4,5,6-hexahydro-2,6-methanobenzo[d]azocin-11-ylidene)acetic acid]	74.7 ± 1.2	1 ± 0.106	48.7 ± 3.53	0.421 ± 0.14	42.5 ± 4.24	853 ± 199			
O=C(O)CCC[C@]12CCN(CC3CC3)[C@H](Cc3ccc(O)cc31)[C@@H]2CC(=O)O [Compound 10, 4-((2R,6R,11R)-11-(carboxymethyl)-3-(cyclopropylmethyl)-8-hydroxy-1,2,3,4,5,6-hexahydro-2,6-methanobenzo[d]azocin-6-yl)butanoic acid]	31.3 ± 1.86	0.275 ± 0.0436	16 ± 3	0.0705 ± 0.0269	64.5 ± 11.3	977 ± 335			
COc1ccc2c(c1)[C@]1(CC(N)=O)CCN(CC3CC3)[C@H](C2)[C@@H]1CO [Compound 22, 2-((2R,6S,11R)-3-(cyclopropylmethyl)-11-(hydroxymethyl)-8-methoxy-1,2,3,4,5,6-hexahydro-2,6-methanobenzo[d]azocin-6-yl)acetamide]	41.7 ± 4.91	2.18 ± 0.326	56 ± 3.61	1.28 ± 0.177	79.1 ± 19.1				
